{
  "source": "patent US10111936B2",
  "about": "“Metal-glycoprotein complexes and photodynamic therapy of immune privileged sites with same” (Theralase Technologies, Inc., priority 2015, dated 2018)",
  "key": {"[1]": {"system": "RG2 cells (rat glioblastoma tumor model)", "experiment": "In vivo PDT in rat glioblastoma", "details": "ALA mediated PDT in RG2 tumor model; comparison", "method": "A four-month old rat was injected in the cerebral cortex with 5000 RG2 cells (rat glioblastoma tumor model). Eleven days later, the rat was injected with TLD1433 (5 mg/kg) with human apo-transferrin.\nPDT was administered 24 hours later. Light source and fluence: 808 nm wavelength, 300 J/cm^2 delivered at 100 mW. The number of photons absorbed was 2.8×10^17 photons/cm^3.\nA five-month old rat was injected in the cerebral cortex with 5000 RG2 cells. Eleven days later, the rat was injected with TLD1433 (5 mg/kg) with human apo-transferrin. PDT was administered 24 hours later. Light source and fluence: 808 nm wavelength, 600 J/cm^2 delivered at 200 mW. The number of photons absorbed was 4.41×10^18 photons/cm^3."}, "[2]": {"details": "cited from earlier work"}, "[3]": {"experiment": "Absorbance / optical density with transferrin or OPTIFERRIN", "format": "physicochemical", "details": "novel absorption in the red (600 nm) and near infrared (800 nm)", "procedure": "Transferrin (0.2 mg/mL) was incubated with different photosensitizers (10 uM) and the absorbance spectra were obtained. […] Note that a large relative increase in absorbance may be accompanied by a small absolute difference and vice versa.\nThe optical density of TLD1433 was measured before and after the addition of either OPTIFERRIN (available from InVitria, a division of Ventria Bioscience) or human apo-transferrin (Sigma). […] This finding highlights the potential of using OPTIFERRIN to increase the efficacy of Theralase's TLD1433 photosensitizer. The increase in optical density will translate to a higher production of reactive oxygen species during PDT treatment. The absorption in red and near infrared light will allow for novel treatment applications for different tumors."}},
  "data": [
    {"molecule": "NCC(=O)CCC(=O)O", "note": "[aminolevulinic acid]", "values": [
      {"measurement": "post PDT survival", "setting": "[1]", "result": 8, "unit": "days"}
    ]},
    {"molecule": "Cn1nnc2c(C(N)=O)ncn2c1=O", "note": "[temozolomide]", "values": [
      {"measurement": "half-life", "setting": "[2]", "result": "approximately 1.8 hours"}
    ]},
    {"molecule": "TLD1433-OPTIFERRIN complex: complex of TLD1433 with OPTIFERRIN, a recombinant human transferrin", "values": [
      {"measurement": "optical density after addition of OPTIFERRIN", "setting": "[3]", "result": "substantial increase in optical density"}
    ]}
  ]
}
